In assay [1] the test system is surfactant lipids. As to the kind of experiment: TBARS assay of copper-induced oxidation of surfactant lipids. The class given is biochemical.
In assay [2] the test system is LDL. As to the kind of experiment: TBARS assay of copper-induced oxidation of LDL. The class given is biochemical, human. The following applies: for TBARS LDL Malondialdehyde: mean ± S.E.M., n=3. Here is the method:
Substrates for lipid oxidation included mixtures of natural and synthetic glycerophospholipids that are found in pulmonary surfactant and human LDL. The surfactant lipid mix, composed of egg phosphatidylcholine, dipalmitoylphosphatidylcholine, cholesterol and 1-oleoyl-2-linoleoyl-sn-glycero-3-phosphocholine (1:1:0.15:0.15, w/w, respectively) (Avanti Polar Lipids) in chloroform, was dried to a film under nitrogen. Following hydration in PBS or 0.15 M NaCl for 30 min, multilamellar vesicles were generated by vigorous vortexing for 5 minutes. LDL were isolated from the plasma of normal blood donors by density gradient ultracentrifugation (density=1.019-1.063 g/ml) as previously described in Qin et al., Am. J. Physiol. 274(5 Pt 2): H1836-1840 (1998), and stored in saline-EDTA. Just prior to use, EDTA was removed by dialysis against PBS, and the concentration of LDL was determined by Lowry assay (in milligrams of LDL-associated protein).
Stock solutions of 10 mM CuSO4 were freshly prepared daily. Reaction mixtures containing 1 mg/mi surfactant lipids or 150 μg/ml LDL were incubated with 10 μM CuSO4 for 24 hours or 4 hours, respectively, in the presence of putative oxidation inhibitors or controls at 37° C. in a shaking water bath in accordance with the method of Gelvan et al., Biochim. Biophys. Acta 1035(3):353-360 (1990). Control reactions which included LDL only, 10 μM CuSO4 or protein controls of bovine serum albumin (BSA), rat IgG, recombinant MBP, rat serum and human complement C1q were performed concurrently with experimental samples. Thiobarbituric acid-reactive substances (TBARS) were measured using a method adapted from Gelvan et al., Biochim. Biophys. Acta 1035(3):353-360 (1990). Samples and 0-10 μM […] standards were developed by addition of a solution composed of 0.375% thiobarbituric acid, 15% trichloroacetic acid, and 0.25N HCl at a volume ratio of 1:2, sample: developer. Following incubation at 95° C. for 30 minutes and centrifugation at 14,000 rpm for 15 minutes, an aliquot was read at 540 nm in a spectrophotometer. For continuous assessment of lipid oxidation, the accumulation of conjugated dienes during LDL oxidation was monitored spectrophotometrically in accordance with the method of Esterbauer et al., Free Rad. Med. Biol. 13, 341-390 (1992). Mixtures of 150 μg/ml LDL, 10 μM copper, and various amounts of surfactant proteins or control proteins were placed in quartz cuvettes and allowed to oxidize at room temperature over 335 minutes. Conjugated diene formation was assessed by measuring absorbance at 234 nm in a spectrophotometer.
The data are set forth graphically in FIG. 3. Various concentrations of recombinant wild type SP-A (circle), mutant SP-A containing a deletion of the collagen-like domain (square) and mutant SP-A containing only the neck and C-lectin domain (CLD) (triangle) were incubated with LDL in the presence of 10 μM Cu^2+, and lipid peroxidation was quantified by TBARS assay. Data are means, n=3-4.

Assay [3] deals with E. coli K12. As to the kind of experiment: Radial diffusion growth inhibition in agar. The class given is cell-based. The following applies: for Inhibition of E. coli growth in presence of anti-mouse SP-A / anti-mouse SP-D antibodies / Inhibition of E. coli growth in presence of excess LPS vesicles: radial diffusion; for Inhibition of E. coli growth in presence of excess LPS vesicles: for SP-A>SP-D. Here is the method: (§1) A radial diffusion method was therefore used to examine the effect of the collectins and their individual structural domains on the growth of E. coli that were immobilized in agar (FIGS. 8,9). Wells were bored into plates containing agar impregnated with 2×10^6 E. coli/ml or GBS. Proteins to be tested were introduced into the wells and the plates were incubated overnight at 37° C.

Assay [4] relates to GBS. As to the kind of experiment: Radial diffusion growth inhibition in agar. In kind it is cell-based. The following applies: 0.5 and 5.0 μg added. Here is the method:
as §1

Assay [5] has as its system LDL. As to the kind of experiment: Western (immunoblot) analysis of protein carbonyl derivatives formed during copper mediated LDL oxidation. In kind it is biochemical, human. As to conditions: SP-A 10 μg/ml, SP-D 1 μg/ml; alkylated SP-A 50 μg/ml, alkylated SP-D 10 μg/ml. Here is the method: Proteins were analyzed for carbonyl modification of amino acid side groups that occur during lipid oxidation, as described in Levine et al., Methods Enzymol. 186, 464-478 (1990). Briefly, proteins that were included in reactions mixtures with LDL and 10 μM copper were derivatized to 2,4-dinitrophenylhydrazones (DNP-hydrazones) by reaction with 2,4-dinitrophenylhydrazine (DNPH), size fractionated by 8-16% SDS-PAGE under reducing conditions and electrophorectically transferred to nitrocellulose membranes (Oxyblot, Intergen). The membrane was sequentially incubated with a rabbit anti-DNP IgG and a horseradish peroxidase-conjugated goat anti-rabbit IgG. Blots were developed by HRP-dependent oxidation of a chemiluminescent substrate, and visualized using autoradiography.
To determine if the surfactant proteins act as sinks for reactive lipid intermediates, covalent modification of SP-A and SP-D during LDL oxidation was assessed using a western analysis technique that detects carbonyl adducts (Levine et al., Methods Enzymol. 186: 464-78 (1990)). As depicted by FIG. 4, oxidative modification of proteins that occurred during copper induced LDL oxidation were determined by Western analysis using an antibody to DNP-derivatized carbonyl moieties. Reaction mixtures contained LDL only, LDL+Cu^2+, LDL+Cu^2++albumin+10 μg/ml SP-A, LDL+Cu^2++albumin+1 μg/ml SP-D, LDL+Cu^2++albumin, LDL+Cu^2++albumin+50 μg/ml iodoacetamide treated SP-A, LDL+Cu^2++albumin+10 μg/ml iodoacetamide treated SP-D, 50 μg/ml albumin+50 μg/ml iodoacetamide treated SP-A, albumin+10 μg/ml iodoacetamide treated SP-D.
In general terms: Immunoblotting shows a protein as a band on a membrane.

The subject of assay [6] is surfactant lipids. As to conditions: comparison value; read-out: I.C.50 of antioxidant serum lipoprotein; cited from earlier work.

On to “Clq: human complement C1q, the first component of complement [reference compound]”, for which the “Protection from oxidation of surfactant lipids” value in assay [1] (50 μg/ml control protein) is recorded as “no protection from oxidation”. For the same molecule, in assay [1] (Lipid + Cu2+ + 50 μg/ml protein, mean ± S.E.M., n=3), the “TBARS Surfactant lipids Malondialdehyde” value is 1.15 ± 0.07 µM. Moreover, the “Effect on LDL lipid oxidation” value in assay [2] (50 μg/ml) was “no effect on LDL lipid oxidation”. Moreover, the “TBARS LDL Malondialdehyde” value in assay [2] (LDL + Cu2+ + 50 μg/ml protein) was determined as 4.16 ± 0.05 µM.
“lysozyme: positive control protein lysozyme [reference compound]”: the “Clearing in E. coli plates” value in assay [3] (0.5 and 5.0 μg added) is “dose-dependent clearing”. Further, in assay [4], the “Clearing in GBS plates” value is listed as “dose-dependent clearing”.
“recombinant mouse SP-A: recombinant mouse SP-A”: in assay [3], the “Inhibition of E. coli growth in presence of anti-mouse SP-A / anti-mouse SP-D antibodies” value is on record as “blocked” and the “Inhibition of E. coli growth in presence of excess LPS vesicles” value is on record as “blocked”.

B1: alkylated SP-D: rat SP-D alkylated by incubation with 0.5 M iodoacetamide (protein, UniProt P35248 20-374, looked up)
Pulmonary …: AEMKTLSQRSITNTCTLVLCSPTENGLPGRDGRDGREGPRGEKGDPGLPGPMGLSGLPGPRGPVGPKGENGSAGEPGPKGERGLVGPPGSPGISGPAGKEGPSGKQGNIGPQGKPGPKGEAGPKGEVGAPGMQGSAGAKGPAGPKGERGAPGEQGAPGNAGAAGPAGPAGPQGAPGSRGPPGLKGDRGAPGDRGIKGESGLPDSAALRQQMEALNGKLQRLEAAFSRYKKAALFPDGQSVGDKIFRAANSEEPFEDAKEMCRQAGGQLASPRSATENAAVQQLVTAHSKAAFLSMTDVGTEGKFTYPTGEALVYSNWAPGEPNNNGGAENCVEIFTNGQWNDKACGEQRLVICEF
modifications: alkylated with iodoacetamide
notes: rat SP-D alkylated by incubation with 0.5 M iodoacetamide
With B1, in assay [2] (LDL + Cu2+ + 10 μg/ml protein), the “TBARS LDL Malondialdehyde” value turned out to be 3.92 ± 0.14 µM. The “LDL oxidation in carbonyl Western analysis” value in assay [5] is “neither alkylated SP-A at 50 μg/ml or alkylated SP-D at 10 μg/ml inhibited lipid oxidation”.

B2: ApoAIV: antioxidant serum lipoprotein ApoAIV (protein, UniProt P06727 21-396, looked up)
Apolipoprotein A-IV: EVSADQVATVMWDYFSQLSNNAKEAVEHLQKSELTQQLNALFQDKLGEVNTYAGDLQKKLVPFATELHERLAKDSEKLKEEIGKELEELRARLLPHANEVSQKIGDNLRELQQRLEPYADQLRTQVSTQAEQLRRQLTPYAQRMERVLRENADSLQASLRPHADELKAKIDQNVEELKGRLTPYADEFKVKIDQTVEELRRSLAPYAQDTQEKLNHQLEGLTFQMKKNAEELKARISASAEELRQRLAPLAEDVRGNLRGNTEGLQKSLAELGGHLDQQVEEFRRRVEPYGENFNKALVQQMEQLRQKLGPHAGDVEGHLSFLEKDLRDKVNSFFSTFKEKESQDKTLSLPELEQQQEQQQEQQQEQVQMLAPLES
On to B2, for which the IC50 in assay [6] is 50 nM.

B3: recombinant mouse SP-D: recombinant mouse SP-D (protein)
chain: AEMKSLSQRSVPNTCTLVMCSPTENGLPGRDGRDGREGPRGEKGDPGLPGPMGLSGLQGPTGPVGPKGENGSAGEPGPKGERGLSGPPGLPGIPGPAGKEGPSGKQGNIGPQGKPGPKGEAGPKGEVGAPGMQGSTGAKGSTGPKGERGAPGVQGAPGNAGAAGPAGPAGPQGAPGSRGPPGLKGDRGVPGDRGIKGESGLPDSAALRQQMEALKGKLQRLEVAFSHYQKAALFPDGRSVGDKIFRTADSEKPFEDAQEMCKQAGGQLASPRSATENAAIQQLITAHNKAAFLSMTDVGTEGKFTYPTGEPLVYSNWAPGEPNNNGGAENCVEIFTNGQWNDKACGEQRLVICEF
For the molecule B3, in assay [3], the “Inhibition of E. coli growth in presence of anti-mouse SP-A / anti-mouse SP-D antibodies” value was “blocked” and the “Inhibition of E. coli growth in presence of excess LPS vesicles” value is given as “blocked”.

(Values after patent US7273847B2, “Peptides with antioxidant and antimicrobial properties” (priority 2000, dated 2007).)
